In ChEMBL document CHEMBL3885861, “Open TG-GATES”:

Species: Rattus norvegicus
Assay: Open TG-GATES - Regimen: Daily Repeat
Type: toxicity, organism-based, Sprague-Dawley
Set-up: regimen Daily Repeat, gender Male, age 6 weeks
Conditions: in vivo, po, route gavage; for KIDNEY_L / KIDNEY_R / KIDNEY_TOTAL: tissue Kidney; for LIVER: tissue Liver
[1] = 0 mg/kg, […], tissue Plasma, dose level Control, time 28 day
[2] = 1 mg/kg, 72 h, dose level Low, time 3 day
[3] = 1 mg/kg, 72 h, tissue Blood, dose level Low, time 3 day
[4] = 1 mg/kg, 72 h, tissue Plasma, dose level Low, time 3 day
[5] = 1 mg/kg, […], dose level Low, time 14 day
[6] = 1 mg/kg, […], dose level Low, time 28 day
[7] = 1 mg/kg, […], tissue Blood, dose level Low, time 14 day
[8] = 1 mg/kg, […], tissue Blood, dose level Low, time 28 day
[9] = 1 mg/kg, […], tissue Plasma, dose level Low, time 14 day
[10] = 1 mg/kg, […], tissue Plasma, dose level Low, time 28 day

SMILES: O=C(O)Cc1ccccc1Nc1c(Cl)cccc1Cl [DICLOFENAC]
- TG [1]: 145.6 mg/dL
- TP [1]: 6.3 g/dL
- gamma-GTP [1]: 0.8 IU/L
- TERMINAL_BW [2]: 235.7 g
- Bas [3]: 0%
- Eos [3]: 1%
- Fbg [3]: 217.6 mg/dL
- Mono [3]: 3.4%
- Plat [3]: 125.8 x10_4/uL
- RBC [3]: 633.8 x10_4/ul
- Ret [3]: 5%
- WBC [3]: 89.1 x10_2/uL
- KIDNEY_L [2]: 1 g
- KIDNEY_R [2]: 1 g
- KIDNEY_TOTAL [2]: 2.1 g
- LIVER [2]: 11 g
- ALP [4]: 1075.6 IU/L
- AST [4]: 66 IU/L
- CRE [4]: 0.4 mg/dL
- DBIL [4]: 0.1 mg/dL
- GLC [4]: 190 mg/dL
- LDH [4]: 173.4 IU/L
- PL [4]: 164.2 mg/dL
- TBIL [4]: 0.2 mg/dL
- TC [4]: 75.8 mg/dL
- TP [4]: 5.7 g/dL
- gamma-GTP [4]: 1 IU/L
- TERMINAL_BW [5]: 319.9 g
- TERMINAL_BW [6]: 385.2 g
- Bas [7]: 0%
- Eos [7]: 1%
- Fbg [7]: 224.4 mg/dL
- Lym [7]: 78.4%
- MCHC [7]: 35.7%
- Plat [7]: 114.5 x10_4/uL
- RBC [7]: 699 x10_4/ul
- Ret [7]: 3.8%
- WBC [7]: 100.3 x10_2/uL
- Bas [8]: 0%
- Eos [8]: 1.4%
- Lym [8]: 80%
- MCH [8]: 20.1 pg
- MCHC [8]: 36.1%
- MCV [8]: 55.6 fL
- Neu [8]: 15.4%
- Plat [8]: 108.4 x10_4/uL
- RBC [8]: 796.2 x10_4/ul
- Ret [8]: 1.8%
- WBC [8]: 95.4 x10_2/uL
- KIDNEY_L [5]: 1.3 g
- KIDNEY_R [5]: 1.3 g
- KIDNEY_TOTAL [5]: 2.6 g
- KIDNEY_L [6]: 1.4 g
- KIDNEY_R [6]: 1.4 g
- KIDNEY_TOTAL [6]: 2.8 g
- LIVER [6]: 14.8 g
- ALP [9]: 890.6 IU/L
- ALT [9]: 35.2 IU/L
- AST [9]: 66.2 IU/L
- CRE [9]: 0.4 mg/dL
- Ca [9]: 10.6 mg/dL
- DBIL [9]: 0.1 mg/dL
- GLC [9]: 218.4 mg/dL
- IP [9]: 7.8 mg/dL
- K [9]: 3.7 meq/L
- LDH [9]: 192.8 IU/L
- Na [9]: 140.8 meq/L
- PL [9]: 173.4 mg/dL
- RALB [9]: 3.4 g/dL
- TBIL [9]: 0.2 mg/dL
- TC [9]: 81.4 mg/dL
- TG [9]: 151.6 mg/dL
- TP [9]: 5.9 g/dL
- gamma-GTP [9]: 0.4 IU/L
- ALP [10]: 610.6 IU/L
- ALT [10]: 29.4 IU/L
- AST [10]: 61.4 IU/L
- CRE [10]: 0.4 mg/dL
- DBIL [10]: 0.088 mg/dL
- GLC [10]: 215.8 mg/dL
- IP [10]: 6.7 mg/dL
- K [10]: 3.5 meq/L
- LDH [10]: 165.4 IU/L
- PL [10]: 141.4 mg/dL
- RALB [10]: 3.4 g/dL
- TBIL [10]: 0.2 mg/dL
- TP [10]: 6.2 g/dL
- gamma-GTP [10]: 0.2 IU/L
